Test results from ChEMBL document CHEMBL4196018, “New antitumor anthra[2,3-b]furan-3-carboxamides: Synthesis and structure-activity relationship” (Eur J Med Chem, 2018).
The source made the active and inactive calls. The rule behind the calls is not given here.

Legend:
[1] = tested on: HeLa; experiment: Antiproliferative activity against human HeLa cells after 72 hrs by MTT assay; type: functional, cell-based
[2] = Resistance index, ratio of IC50 for human K562/4 cells to IC50 for human K562 cells; type: functional
[3] = tested on: K562; experiment: Antiproliferative activity against human K562 cells after 72 hrs by MTT assay; type: functional, cell-based; conditions: K562, 72 h
[4] = Resistance index, ratio of IC50 for p53 knockout human HCT116 cells to IC50 for human HCT116 cells; type: functional
[5] = tested on: L1210; experiment: Antiproliferative activity against mouse L1210 cells after 48 hrs by MTT assay; type: functional, cell-based; conditions: L1210, 48 h
[6] = tested on: HCT-116; experiment: Antiproliferative activity against p53 knockout human HCT116 cells after 72 hrs by MTT assay; type: functional, cell-based; conditions: HCT-116, 72 h
[7] = tested on: HCT-116; experiment: Antiproliferative activity against human HCT116 cells after 72 hrs by MTT assay; type: functional, cell-based; conditions: HCT-116, 72 h
[8] = tested on: CCRF-CEM; experiment: Antiproliferative activity against human CEM cells after 72 hrs by MTT assay; type: functional, cell-based
[9] = Antiproliferative activity against human K562/4 cells after 72 hrs by MTT assay; type: functional, cell-based; conditions: K562/4, 72 h
[10] = tested on: TMK-1; experiment: Induction of apoptosis in human TMK1 cells after 24 hrs by Annexin V-FITC staining based flow cytometry; type: functional, cell-based
[11] = tested on: MKN-45; experiment: Induction of apoptosis in human MKN45 cells after 24 hrs by Annexin V-FITC staining based flow cytometry; type: functional, cell-based
[12] = target: T1, DNA topoisomerase 1 (Homo sapiens) (UniProt P11387); experiment: Inhibition of human topoisomerase-1 using supercoiled pBR322 DNA as substrate after 30 mins by agarose gel electrophoresis method
T1 sequence (whole entry): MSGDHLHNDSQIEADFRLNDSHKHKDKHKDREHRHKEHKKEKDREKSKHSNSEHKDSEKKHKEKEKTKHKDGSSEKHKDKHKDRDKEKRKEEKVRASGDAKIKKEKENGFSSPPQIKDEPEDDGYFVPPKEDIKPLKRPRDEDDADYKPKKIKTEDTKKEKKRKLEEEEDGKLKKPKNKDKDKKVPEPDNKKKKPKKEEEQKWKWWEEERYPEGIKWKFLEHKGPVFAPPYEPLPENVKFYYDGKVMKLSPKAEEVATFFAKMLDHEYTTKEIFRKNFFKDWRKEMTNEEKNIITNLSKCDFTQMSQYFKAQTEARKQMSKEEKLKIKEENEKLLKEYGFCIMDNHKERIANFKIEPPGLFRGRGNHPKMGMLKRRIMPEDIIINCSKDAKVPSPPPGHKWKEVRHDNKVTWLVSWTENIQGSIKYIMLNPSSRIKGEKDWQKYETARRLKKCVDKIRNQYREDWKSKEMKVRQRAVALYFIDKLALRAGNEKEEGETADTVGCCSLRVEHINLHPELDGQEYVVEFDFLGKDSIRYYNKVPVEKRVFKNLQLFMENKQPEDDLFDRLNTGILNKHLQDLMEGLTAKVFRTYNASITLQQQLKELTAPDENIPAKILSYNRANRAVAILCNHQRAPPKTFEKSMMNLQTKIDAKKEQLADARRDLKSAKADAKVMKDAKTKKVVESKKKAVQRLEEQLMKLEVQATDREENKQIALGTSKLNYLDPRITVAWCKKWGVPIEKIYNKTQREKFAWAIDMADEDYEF

[13] = Substrate activity at P-gp in human K562/4 cells assessed as test compound accumulation at 2 uM after 1 to 24 hrs by flow cytometry; type: ADME, cell-based
[14] = tested on: TMK-1; experiment: Induction of ROS generation in human TMK1 cells at 0.1 to 1 uM after 30 mins by H2DCFDA staining based flow cytometry; type: functional, cell-based
[15] = tested on: Lymphocyte; experiment: Cytotoxicity against human lymphocytes assessed as reduction in cell viability at 25 uM after 72 hrs by MTT assay; type: cell-based
[16] = Drug uptake in human K562 cells at 2 uM after 1 to 24 hrs by flow cytometry; type: ADME, cell-based; conditions: k562, 2 µM
[17] = tested on: TMK-1; experiment: Induction of apoptosis in human TMK1 cells at 1 uM after 24 hrs by Annexin V-FITC staining based flow cytometry relative to control; type: functional
[18] = tested on: MKN-45; experiment: Induction of ROS generation in human MKN45 cells at 0.1 to 1 uM after 30 mins by H2DCFDA staining based flow cytometry; type: functional, cell-based
[19] = tested on: MKN-45; experiment: Induction of apoptosis in human MKN45 cells at 1 uM after 24 hrs by Annexin V-FITC staining based flow cytometry relative to control; type: functional
[20] = target: T1, DNA topoisomerase 1 (Homo sapiens); experiment: Inhibition of human topoisomerase-1 at 1 to 30 uM using supercoiled pBR322 DNA as substrate after 30 mins by agarose gel electrophoresis method

Row | IC50 [1] [nM] | IC50 [3] [nM] | IC50 [5] [nM] | IC50 [6] [nM] | IC50 [7] [nM] | IC50 [8] [nM] | inhibition [12] | Activity [13] | Drug uptake [16] | inhibition [20] | SMILES | Ratio IC50 [2] | Ratio IC50 [4] | IC50 [9] [nM] | Activity [10] | Activity [11] | Activity [14] | Activity [15] | Activity [17] | Activity [18] | Activity [19]
1 | 2000 | 900 | 1000 | 1000 | 800 | 1000 | – | – | – | – | O=C1c2ccccc2C(=O)c2c1c(O)c1occ(C(=O)NC3CCNC3)c1c2O (racemic) | 5 | 1.3 | 4500 | – | – | – | – | – | – | –
2 | 2300 | 1300 | 4400 | 2400 | 3200 | 3900 | – | – | – | – | Cc1oc2c(O)c3c(c(O)c2c1CN1CC[C@H](N)C1)C(=O)c1ccccc1C3=O | 1.4 | 0.8 | 1800 | – | – | – | – | – | – | –
3 | 3300 | 2300 | 2500 | 5100 | 5000 | 4000 | Dose-dependent effect | – | – | – | N[C@@H]1CCN(C(=O)c2coc3c(O)c4c(c(O)c23)C(=O)c2ccccc2C4=O)C1 | 1.6 | 1 | 3700 | – | – | – | – | – | – | –
4 | 2800 | 1200 | 4300 | 2200 | 2200 | 4300 | – | – | – | – | Cc1oc2c(O)c3c(c(O)c2c1CN1CC[C@@H](N)C1)C(=O)c1ccccc1C3=O | 1.6 | 1 | 1900 | – | – | – | – | – | – | –
5 | 4200 | 2300 | 2400 | 10000 | 6000 | 4000 | – | – | – | – | NC1CCN(C(=O)c2coc3c(O)c4c(c(O)c23)C(=O)c2ccccc2C4=O)CC1 | 4.2 | 1.7 | 9600 | – | – | – | – | – | – | –
6 | 700 | 900 | 600 | 1300 | 1200 | 500 | – | – | – | Active | Cc1oc2c(O)c3c(c(O)c2c1C(=O)N1CC[C@H](N)C1)C(=O)c1ccccc1C3=O | 1.5 | 1.1 | 1400 | Dose-dependent effect | Dose-dependent effect | Active | – | 60 - 90% | Active | 60 - 90%

Second part, the molecule before the results:

Row | SMILES | IC50 [1] [nM] | IC50 [3] [nM] | IC50 [5] [nM] | IC50 [6] [nM] | IC50 [7] [nM] | IC50 [8] [nM] | inhibition [12] | Activity [13] | Drug uptake [16] | inhibition [20] | Ratio IC50 [2] | Ratio IC50 [4] | IC50 [9] [nM] | Activity [10] | Activity [11] | Activity [14] | Activity [15] | Activity [17] | Activity [18] | Activity [19]
7 | O=C1c2ccccc2C(=O)c2c1c(O)c1occ(C(=O)NC3CCNCC3)c1c2O | 1100 | 1100 | 900 | 4000 | 4200 | 800 | – | – | – | – | 2.3 | 1 | 2500 | – | – | – | – | – | – | –
8 | Cc1oc2c(N)c3c(c(N)c2c1C(=O)N1CC[C@H](N)C1)C(=O)c1ccccc1C3=O | 3700 | 9200 | 3100 | 5400 | 7600 | 4000 | – | – | – | – | 0.9 | 0.7 | 8300 | – | – | – | – | – | – | –
9 | N[C@H]1CCN(C(=O)c2coc3c(O)c4c(c(O)c23)C(=O)c2ccccc2C4=O)C1 | 1000 | 1100 | 700 | 3400 | 2800 | 1300 | Dose-dependent effect | Not Active | Active | – | 1.3 | 1.2 | 1500 | Dose-dependent effect | Dose-dependent effect | Active | Non-Toxic | 60 - 90% | Active | 60 - 90%
10 | Cc1oc2c(Cl)c3c(c(Cl)c2c1C(=O)N1CC[C@H](N)C1)C(=O)c1ccccc1C3=O | 5000 | 3800 | 1500 | 4000 | 4500 | 3500 | – | – | – | – | 1.4 | 0.9 | 5300 | – | – | – | – | – | – | –
11 | NC1CCCN(C(=O)c2coc3c(O)c4c(c(O)c23)C(=O)c2ccccc2C4=O)C1 (racemic) | 2300 | 1300 | 2000 | 2500 | 3000 | 4000 | – | – | – | – | 2 | 0.8 | 2600 | – | – | – | – | – | – | –
12 | CN1CCN(NC(=O)c2coc3c(O)c4c(c(O)c23)C(=O)c2ccccc2C4=O)CC1 | 2200 | 1100 | 2000 | 800 | 800 | 3200 | – | – | – | – | 1.4 | 1 | 1500 | – | – | – | – | – | – | –
13 | COc1c2c(c(OC)c3c(C(=O)N4CC[C@H](N)C4)c(C)oc13)C(=O)c1ccccc1C2=O | 27900 | 28600 | 20000 | 50000 | 41000 | 23200 | – | – | – | – | 1.4 | 1.2 | 38700 | – | – | – | – | – | – | –
14 | CN[C@H]1CCN(C(=O)c2coc3c(O)c4c(c(O)c23)C(=O)c2ccccc2C4=O)C1 | 5000 | 2900 | 3500 | 5800 | 5900 | 4600 | – | – | – | – | 1.9 | 1 | 5300 | – | – | – | – | – | – | –
